Experimental data published in US20090246185A1, “CARDIAC DYSFUNCTION-AMELIORATING AGENT OR CARDIAC FUNCTION-MAINTAINING AGENT” (KANEKA CORPORATION, priority 2006, published 2009).
Marks after values point to notes of the source that are not given here.

How the values were obtained:
[1] = system: ischemia-reperfusion model; assay: Heart weight (body weight ratio) in rat ischemia-reperfusion model; format: in vivo; details: for body weight ratio of heart weight: left atrium / body weight ratio of heart weight: left ventricle / body weight ratio of heart weight: right atrium / body weight ratio of heart weight: right ventricle: male SD rats, ischemia-reperfusion, 30 mg/kg per day oral in corn oil, 5 weeks, average; for effect on increase in heart weight (edema), in words: rat ischemia-reperfusion model, 30 mg/kg per day oral, vs. control group
Experimental: (§1) Male SD rats (9-week-old, Japan SLC Inc.) were divided into four groups. Each rat was anesthetized with pentobarbital sodium (35-45 mg/kg, i.p.), and fixed at the dorsal position. A tracheal tube was orally inserted into the airway, artificial respiration was performed by an artificial respirator for small animals, and the medial wall of the thorax was opened to expose the heart. In three groups, the left anterior descending artery (LAD) was obstructed for 30 min with a surgical needle with a thread. At this time, an electrocardiogram was measured via an amplifier for electrocardiogram, and the presence or absence of occlusion was confirmed based on the changes in the ST electrical potential and cardiac muscle color. An ischemia-reperfusion model was prepared by reperfusing the blood flow after 30 min from the occlusion. Thereafter, in all groups, the thorax was closed, sutured, and disinfected with a veterinary Isodine solution.
(§2) The following samples were administered to each group for 1 week before the above-mentioned operation and 4 weeks after the operation (total 5 weeks).
(§3) Group for which occlusion treatment was performed, and oxidized coenzyme Q10 dissolved in corn oil was orally administered at a dosage of 30 mg/kg per day based on the amount of oxidized coenzyme Q10
(§4) Group for which occlusion treatment was performed, and […] dissolved in corn oil was orally administered at a dosage of 30 mg/kg per day based on the amount of reduced coenzyme Q10
After cardiac function evaluation, the animals were euthanized by dislocation of cervical spine under anesthesia, and the heart was removed. The right atrium weight, left atrium weight, right ventricle weight, left ventricle weight and overall weight of the heart (weight of both atria+weight of both ventricles) were measured. For evaluation, the body weight ratio of the right atrium weight, the body weight ratio of the left atrium weight, the body weight ratio of the right ventricle weight and the body weight ratio of the left ventricle weight were calculated.

[2] = system: rats; details: 1200 mg/kg/day consecutive administration for 52 weeks; cited from earlier work
[3] = system: ischemia-reperfusion model; assay: Cardiac function evaluation (left ventricular end-diastolic pressure) in rat ischemia-reperfusion model; format: in vivo; details: for left ventricle end-diastolic pressure: male SD rats, LAD occlusion 30 min then reperfusion, 30 mg/kg per day oral in corn oil, 1 week before and 4 weeks after operation, mean ± standard error; for effect on elevation of the end-diastolic pressure (cardiac function), in words: rat ischemia-reperfusion model, 30 mg/kg per day oral, vs. control group
Experimental: as §1, §2, §3, §4
After measuring the body weight on the next day of the final administration, the rats were fixed at the dorsal position under pentobarbital sodium (25-35 mg/kg, i.p.) anesthesia, and a mirror catheter was inserted into the right carotid artery. After confirmation of the stable condition, the left ventricle internal pressure wave pattern was led to a biological electric amplifier to enlarge same, and the left ventricular end-diastolic pressure (LVEDP) was measured.

[4] = Absorbability evaluation: total coenzyme Q10 in plasma and heart by HPLC; details: male SD rats, 100 mg/kg oral in soybean oil once a day for 4 weeks; average, N=3
Experimental: Male SD rats (5-week-old, Japan SLC Inc.) were each orally administered with soybean oil (control group), oxidized coenzyme Q10 (100 mg/kg) dissolved in soybean oil (oxidized coenzyme Q10 group) and reduced coenzyme Q10 (containing 1 wt % of oxidized coenzyme Q10; 100 mg/kg) dissolved in soybean oil (reduced coenzyme Q10 group) once a day for 4 consecutive weeks (each group N=3). After completion of the administration, blood samples were taken and the heart was removed, and the total amount of coenzyme Q10 (total amount of oxidized coenzyme Q10 and reduced coenzyme Q10) in plasma and heart was quantified by HPLC according to a conventional method.

COC1=C(OC)C(=O)C(C/C=C(\C)CC/C=C(\C)CC/C=C(\C)CC/C=C(\C)CC/C=C(\C)CC/C=C(\C)CC/C=C(\C)CC/C=C(\C)CC/C=C(\C)CCC=C(C)C)=C(C)C1=O [oxidized coenzyme Q10, reference compound]
body weight ratio of heart weight: left atrium [1]: 0.081
body weight ratio of heart weight: left ventricle [1]: 1.823
body weight ratio of heart weight: right atrium [1]: 0.135
body weight ratio of heart weight: right ventricle [1]: 0.498
effect on increase in heart weight (edema), in words [1]: suppressed increase in the heart weight in all parts
toxic influence in chronic toxicity test [2]: did not show a toxic influence
left ventricle end-diastolic pressure [3]: 8.3 ± 0.7 mmHg
effect on elevation of the end-diastolic pressure (cardiac function), in words [3]: did not provide an ameliorating effect

COc1c(O)c(C)c(C/C=C(\C)CC/C=C(\C)CC/C=C(\C)CC/C=C(\C)CC/C=C(\C)CC/C=C(\C)CC/C=C(\C)CC/C=C(\C)CC/C=C(\C)CCC=C(C)C)c(O)c1OC [reduced coenzyme Q10]
body weight ratio of heart weight: left atrium [1]: 0.089
body weight ratio of heart weight: left ventricle [1]: 1.879
body weight ratio of heart weight: right atrium [1]: 0.146
body weight ratio of heart weight: right ventricle [1]: 0.508
effect on increase in heart weight (edema), in words [1]: suppressed increase in the heart weight in all parts
left ventricle end-diastolic pressure [3]: 5.7 ± 0.4 mmHg
effect on elevation of the end-diastolic pressure (cardiac function), in words [3]: significant suppression of elevation of the end-diastolic pressure
total coenzyme Q10 concentration in heart [4]: 9.33 µg/mL
total coenzyme Q10 concentration in plasma [4]: 0.39* μg/ml
